Experiment [1] concerns the target T1, SCD (Rattus norvegicus, UniProt P07308).
T1 construct: an enzyme reaction using rat liver microsome (20 μg) was performed for 15 min; from tissue; host or cells: rat liver microsome fraction
T1 sequence (P07308 1-358): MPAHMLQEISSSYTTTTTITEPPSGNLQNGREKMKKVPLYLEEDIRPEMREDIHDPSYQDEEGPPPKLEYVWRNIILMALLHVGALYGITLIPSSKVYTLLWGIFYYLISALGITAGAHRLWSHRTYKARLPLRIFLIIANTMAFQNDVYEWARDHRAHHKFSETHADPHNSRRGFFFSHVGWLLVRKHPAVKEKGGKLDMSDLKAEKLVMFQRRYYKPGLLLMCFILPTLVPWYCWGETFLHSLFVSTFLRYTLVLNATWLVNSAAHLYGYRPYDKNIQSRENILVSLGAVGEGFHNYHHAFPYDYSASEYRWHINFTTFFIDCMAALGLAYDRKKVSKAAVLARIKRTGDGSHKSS
Description: Measurement of SCD inhibitory activity using microsome (TLC detection system). The experiment is classed as biochemical. The note with it: rat liver microsome (20 μg), 15 min, [14C] stearoyl-CoA; test compound (10 mM) diluted to 3/1000 with 3× buffer, 10 μL in 30 μL reaction; read-out: SCD activity inhibitory rate (%). As for the experimental part: (Test Method: Measurement of SCD Inhibitory Activity Using Microsome (TLC Detection System))
A test compound (10 mM) diluted with DMSO in advance was secondarily diluted to 3/1000 with 3× buffer (300 mmol/L NaH2PO4 [pH 7.4], 450 mM KCl, 30 mM NaF, 9 mM MgCl2, 4.5 mM glutathione [reduced form], 0.3% BSA [fatty acid free, SIGMA]). The test compound (10 μL) diluted with the assay buffer was dispensed to a PP 96-deep well block, and a microsome fraction (10 μL) diluted with a microsome buffer was added thereto. The enzyme reaction was started by the addition of 10 μL of [^14C] stearoyl-CoA (American Radiolabeled Chemicals [ARC], Inc.) diluted to 10 μCi/mL with 9 mmol/L NADH. For evaluation of the compound, an enzyme reaction using rat liver microsome (20 μg) was performed for 15 min. The reaction was quenched by the addition of 10 μL of 2.5N NaOH, a plate seal was applied, and the reaction mixture was incubated overnight in a dry heater set to 65° C. to allow saponification. Solvent extraction of fatty acid was based on the Bligh&Dyer method (1). Formic acid:methanol:chloroform (1:6:3) (200 μL) was added, the state of single layer was maintained, the mixture was sufficiently stirred, and pure water (120 μL) was added to allow separation into two layers. The lower chloroform layer (10 μL) was spotted on reversed-phase TLC plate (RP-18, 1154230001, Merck Japan, Ltd.) and developed with acetonitrile:pure water:acetic:acid (95:4.5:0.5). The TLC plate was dried and transferred onto an Imaging Plate (Fuji Photo Film Co., Ltd.) for not less than 5 hr. For detection, BAS-5000 (Fuji Photo Film Co., Ltd) was used and the obtained spot images were converted to numerical values using Multi Gauge Ver2.3 (Fuji Photo Film Co., Ltd), based on which the SCD activity inhibitory rate (%) was determined.
In general terms: Liver microsomes are a subcellular fraction often used to study metabolism.

Experiment [2] concerns Diet-Induced Obesity (DIO) Model Mouse. Description: Antiobesity action on diet-induced obesity (DIO) model mouse: liver unsaturation index number (C18:1/C18:0). The experiment is classed as in vivo. The settings on record: liver C18:1/C18:0 ratio, 0.1 mg/kg body weight by gavage for 4 weeks, n=7. The text has this: Male C57BL/6J mice (6-week-old) were purchased from CLEA Japan, Inc. The mice were divided into two groups, and a high fat diet (Research Diets, Inc.; solid D12451) was given to one group and a general feed for rearing and breeding (CLEA Japan, Inc.; solid CE-2) was given to the other group.
Each group was reared for 4 months under full feeding, and divided into a diet-induced obesity model group and a general feed group using the body weight and plasma triglyceride concentration as indices. […] of a 0.5% methylcellulose suspension of the compound of Example 15 (0.1 mg/kg body weight) was administered to each of the diet-induced obesity model group and the general feed group by gavage for 4 weeks (each group n=7). […] The body weight of each group was measured during the dosing period. […]
The liver total lipid sample extracted by the above-mentioned procedure was labeled using an ester type fatty acid labeling reagent (YMC). The labeled sample was dissolved in methanol (5 μL) and analyzed using YMC-Pack FA (6.0Φ×250 mm), CH3CN:H2O:0.1% TFA (850:150:2) as a mobile phase at a flow rate of 1.2 mL/min. The peak area of each fatty acid in the sample was determined as a C18:1/C18:0 ratio from the peak area of each standard product and used as an unsaturation index number which is an index of the enzyme activity of SCD. […]

Consider `Cc1nsc(-c2ccc(N3CCC4(C3)OCc3ccccc34)nn2)n1` (centres unmarked) [Example 15, 1′-[6-(3-methyl-1,2,4-thiadiazol-5-yl)pyridazin-3-yl]-3H-spiro[2-benzofuran-1,3′-pyrrolidine]], for which, in experiment [1], the inhibition at 10 µM is 100%. In addition, the figures for the “unsaturation index number (mean ± SD)” value in experiment [2] (diet-induced obesity model group) and in experiment [2] (general feed group) were 43.886 ± 2.0318 and 29.017 ± 1.2254, respectively.

As for `Cc1nc(-c2ccc(N3CCC4(C3)OCc3ccccc34)nn2)no1` (centres unmarked) [Example 150, 1′-[6-(5-methyl-1,2,4-oxadiazol-3-yl)pyridazin-3-yl]-3H-spiro[2-benzofuran-1,3′-pyrrolidine]], the inhibition at 10 µM in experiment [1] stood at 99%.

In the case of `Cc1nsc(-c2ccc(N3CCC4(CC3)NC(=O)c3ccccc3O4)nn2)n1` [Example 31, 1′-[6-(3-methyl-1,2,4-thiadiazol-5-yl)pyridazin-3-yl]spiro[1,3-benzoxazine-2,4′-piperidin]-4(3H)-one], the inhibition at 10 µM in experiment [1] was 92%.

As for `Cc1nsc(-c2ccc(N3CCC4(CC3)CC(=O)c3ccccc3O4)nn2)n1` [Example 5, 1′-[6-(3-methyl-1,2,4-thiadiazol-5-yl)pyridazin-3-yl]spiro[chromene-2,4′-piperidin]-4(3H)-one], the inhibition at 10 µM in experiment [1] was determined as 100%.

Take `Cc1nsc(-c2ccc(N3CCC4(C=Cc5ccccc54)CC3)nn2)n1` [Example 2, 1′-[6-(3-methyl-1,2,4-thiadiazol-5-yl)pyridazin-3-yl]spiro[indene-1,4′-piperidine]]: in experiment [1], the inhibition at 10 µM was found to be 99%.

As to `Cc1noc(-c2ccc(N3CCC4(C3)OCc3ccccc34)nn2)n1` (centres unmarked) [Example 43, 1′-[6-(3-methyl-1,2,4-oxadiazol-5-yl)pyridazin-3-yl]-3H-spiro[2-benzofuran-1,3′-pyrrolidine]], the inhibition at 10 µM in experiment [1] came to 100%.

These data come from patent US8575167B2, “Spiro compounds having stearoyl-CoA desaturase action” (Takeda Pharmaceutical Company Limited, priority 2007, dated 2013).
